Reference: US20230210834A1, “RNA METHYLTRANSFERASE INHIBITOR, SCREENING METHOD THEREFOR, ANTI-CANCER AGENT EFFICACY ASSESSMENT MARKER, AND KIT FOR EFFECTIVELY PREDICTING FTSJ1 INHIBITOR” (National University Corporation Okayama University, priority 2019, published 2023)

Experiments:
YAP/TAZ = assay: Screening: YAP/TAZ activity reporter (8xGTIIC plasmid) assay in NUGC3 cells (luminescence % of DMSO); type: cell-based, human; conditions: NUGC3 cells, luminescence relative to DMSO, concentration not given
Experimental: (§1) Human gastric cancer cell line NUGC3 was cultured in a DMEM medium (high glucose with L-glutamine and phenol red, produced by FUJIFILM Wako Pure Chemical Corporation) containing 10% fetal bovine serum (produced by Thermo Fisher Scientific Inc.) and penicillin-streptomycin (produced by FUJIFILM Wako Pure Chemical Corporation) (this medium is simply referred to below as “DMEM+10% FBS+1×P/S”). Then, the NUGC3 cells were seeded in a 60-mm culture dish (produced by BioLite) so that the cells were 80% confluent after 24 hours. Subsequently, 5 μg of a reporter plasmid and 15 μL of a lipofection reagent (transIT-LT1, produced by Mirus Bio LLC) were mixed in 500 μL of Opti-MEM medium (produced by Thermo Fisher Scientific, Inc.) to form a complex, which was added to the medium in which the NUGC3 cells were cultured in the 60-mm culture dish. For use as the reporter plasmid, 5 μg of a polyglutamine luciferase reporter was introduced (in the polyglutamine luciferase reporter, a Renilla luciferase expressed in the IRES was located as an internal standard downstream of the sequence of a firefly luciferase sequence to which polyglutamine was added). Alternatively, a YAP/TAZ activity reporter was used by simultaneously introducing 3 μg of 8×GTIIC plasmid and 2 μg of a Renilla luciferase reporter as an internal standard. After another 24 hours, the cells were exfoliated with a 0.05 w/v % trypsin-0.53 mmol/l EDTA-4Na solution (produced by FUJIFILM Wako Pure Chemical Corporation), and then seeded in a 96-well plate (produced by BioLite) so that the cells were 80% confluent after 24 hours. Twenty-four hours after seeding in the 96-well plate, the medium in each well was replaced with 100 μL of a medium (DMEM+10% FBS+an antibiotic) containing 10 μM or 5 μM of a compound for evaluation. After another 24 hours, the medium containing the compound was removed, and the 96-well plate was transferred on ice. Each well was washed with 100 μL of phosphate buffer (PBS, produced by FUJIFILM Wako Pure Chemical Corporation). Thereafter, 20 μL of Passive Lysis Buffer (1×) contained in a Dual-Luciferase Reporter Assay System (produced by Promega Corporation) was added. The plate was then gently shaken for 15 minutes at room temperature to lyse the cells. After confirming that the cells were lysed, 10 μL of the lysate was transferred from each well to each corresponding well of a white 96-well plate (produced by Greiner Bio-one). To each well of the white 96-well plate was added 100 μL of a mixture of a Luciferase Assay Buffer II and Luciferase Assay Substrate contained in the Dual-Luciferase Reporter Assay System (produced by Promega Corporation), whereby the luminescence of the firefly luciferase was induced, and the luminescence intensity was detected with a microluminometer (produced by Berthold Japan K.K.). Subsequently, 100 μL of a mixture of Stop & Glo Buffer and Stop & Glo Substrate contained in the Dual-Luciferase Reporter Assay System (produced by Promega Corporation) was added, whereby the luminescence of firefly luciferase was quenched while the luminescence of Renilla luciferase was induced, and the luminescence intensity was detected with a microluminometer (produced by Berthold Japan K.K.) in a manner similar to the above. The ratio of the luminescence intensity of the firefly luciferase and the luminescence intensity of the Renilla luciferase was calculated, and the luminescence intensity (%) of the wells containing each compound was calculated with the luminescence intensity of the well containing DMSO (dimethyl sulfoxide, used as a solvent for the compound liquids) taken as 100%. […] Unless otherwise specified, the measured values in the table represent the results obtained by evaluation with the addition of 10 μM of each compound for evaluation.

[1] = tested on: polyglutamine luciferase reporter; assay: Screening: polyglutamine luciferase reporter assay in NUGC3 cells (luminescence % of DMSO); type: cell-based, human; conditions: NUGC3 cells, luminescence relative to DMSO, concentration not given
Experimental: as §1

[2] = YAP/TAZ activity reporter (8×GTIIC)
[3] = polyglutamine luciferase reporter

Row | Structure (SMILES) | 8×GTIIC (YAP/TAZ; [2]) [%] | Polyglutamine [1, 3] [%] | 8×GTIIC (YAP/TAZ) [%] | Polyglutamine [1] [%]
1 | Cc1ccc(S(=O)(=O)CC2CCC(C3CC3)CC2)cc1C (stereo not shown) [SA055] | 82.18 | 81.09 |  | 
2 | O=S(=O)(CCC1CCCCC1)c1ccc(-c2ccccc2)cc1 [PVZF2033] | 69.36 | 67.7 |  | 
3 | Cc1ccc(S(=O)(=O)CC2CCC(C3CC3)CC2)cc1C (stereo not shown) [SA042] | 100.9 | 94.62 |  | 
4 | CCc1cc(C)c(S(=O)(=O)CC2CC(C)(C)CC(C)(C)C2)cc1C(C)C [SA006] | 40.21 | 37.54 |  | 
5 | CC1CCC(S(=O)(=O)C2CCC(CS(=O)(=O)c3ccccc3)CC2)CC1 (stereo not shown) [SA072] | 68.16 | 73.98 |  | 
6 | CCc1ccc(CC)c(S(=O)(=O)CC2CCC(S(C)(=O)=O)CC2)c1 (stereo not shown) [SA095] | 67.3 | 44.97 |  | 
7 | CC(C)(C)c1ccccc1S(=O)(=O)CC1CCC(C2CC2)CC1 (stereo not shown) [SA087] | 59.57 | 78.43 |  | 
8 | CCc1ccc(C2=NC(S(=O)(=O)c3ccccc3)C(c3cccc(CC)c3CC)C2)cc1CC (stereo not shown) [PVZF0052] |  |  | 54.38 | 71.62
9 | CCc1cccc(C2CC(c3ccc(C)cc3)=NC2S(=O)(=O)c2ccccc2C)c1CC (stereo not shown) [PVZF0051] |  |  | 36.59 | 40.74
10 | CCc1cccc(C2CC(c3cccc(C)c3)=NC2S(=O)(=O)c2ccccc2C)c1CC (stereo not shown) [PVZF0058] |  |  | 66.66 | 54.21
11 | Cc1ccc(S(=O)(=O)CC2CCC(S(C)(=O)=O)CC2)cc1 (stereo not shown) [SA062] | 100.9 | 93.21 |  | 
12 | CS(=O)(=O)C1CCC(CS(=O)(=O)c2ccc3c(c2)CCCC3)CC1 (stereo not shown) [SA065] | 39.43 | 47.58 |  | 
13 | CC(=O)c1ccccc1S(=O)(=O)CC1CCC(S(C)(=O)=O)CC1 (stereo not shown) [SA074] | 88.44 | 92.5 |  | 
14 | CCS(=O)(=O)C1CCC(CS(=O)(=O)c2ccc(C)cc2)CC1 (stereo not shown) [SA044] | 63.33 | 87.25 |  | 
15 | CCCC(=O)C1CCC(CS(=O)(=O)c2ccc(C)c(C)c2)CC1 (stereo not shown) [SA026] | 46.21 | 63.06 |  | 
16 | Cc1ccc(C)c(S(=O)(=O)CC2CCC(C3CC3)CC2)c1 (stereo not shown) [SA052] | 54.65 | 47.69 |  | 
17 | CC1CC(C)CC(S(=O)(=O)C2CCC(CS(=O)(=O)c3ccccc3)CC2)C1 (stereo not shown) [SA090] | 64.02 | 84.73 |  | 
18 | CCc1ccccc1C1CC(c2ccc(C)cc2)=NC1S(=O)(=O)c1ccc(C)cc1 (stereo not shown) [PVZF0091] |  |  | 40.68 | 34.27
19 | CCc1cccc(C2CC(c3ccc(C)cc3)=NC2S(=O)(=O)c2ccc(C)cc2)c1CC (stereo not shown) [PVZF0069] |  |  | 49.99 | 46.34
20 | O=S(=O)(CCCC1CCCCC1)c1ccc2ccccc2c1 [PVZF2017] | 58.91 | 66.66 |  | 
21 | CCCc1ccc(S(=O)(=O)CC2CCC(C3CC3)CC2)cc1OCC (stereo not shown) [SA029] | 65.65 | 58.64 |  | 
22 | CCCc1cc(S(=O)(=O)CC2CC(C)(C)CC(C)(C)C2)ccc1C [SA011] | 67.54 | 60.35 |  | 

Row | Structure (SMILES) | 8×GTIIC (YAP/TAZ; [2]) [%] | Polyglutamine [1, 3] [%] | 8×GTIIC (YAP/TAZ) [%] | Polyglutamine [1] [%]
23 | CCc1ccc(OC)cc1C1CC(c2ccc(C)cc2)=NC1S(=O)(=O)c1ccc(C)cc1 (stereo not shown) [PVZF0043] |  |  | 36.69 | 35.33
24 | Cc1ccc(S(=O)(=O)CC2CCC(C3CC3)CC2)c(C)c1 (stereo not shown) [SA057] | 73.76 | 79.6 |  | 
25 | CCc1ccc(C2=NC(S(=O)(=O)c3ccc(C)cc3)C(c3cccc(CC)c3CC)C2)cc1CC (stereo not shown) [PVZF0081] |  |  | 56.18 | 57.42
26 | Cc1ccc(C2=NC(S(=O)(=O)c3ccccc3)C(c3ccc(C)cc3)C2)cc1 (stereo not shown) [PVZF0086] |  |  | 57.06 | 58.32
27 | O=S(=O)(CC1CCCCC1)c1ccc(-c2ccccc2)cc1 [PVZF2030] | 49.29 | 50.36 |  | 
28 | CC(C)(C)c1ccc(S(=O)(=O)CC2CCCCC2)cc1 [PVZF2021] | 44.55 | 32.95 |  | 
29 | Cc1cc(C(C)(C)C)cc(C)c1S(=O)(=O)CC1CCC(C2CC2)CC1 (stereo not shown) [SA053] | 55.02 | 35.39 |  | 
30 | O=S(=O)(CCC1CCCCC1)c1ccccc1 [PVZF2051] | 35.1 | 38.06 |  | 
31 | O=S(=O)(CC1CCC(C2CC2)CC1)c1ccc(C(F)(F)F)cc1 (stereo not shown) [SA033] | 96.16 | 96.01 |  | 
32 | Cc1ccc(C2=NC(S(=O)(=O)c3ccccc3)C(c3ccc(C)cc3)C2)cc1 (stereo not shown) [PVZF0096] |  |  | 103.6 | 73.68
33 | Cc1ccc(C)c(S(=O)(=O)C2CCC(CS(=O)(=O)c3ccccc3)CC2)c1 (single isomer, unassigned) [SA014] | 93.69 | 72.95 |  | 
34 | O=S(=O)(CC1CCC(C2CC2)CC1)c1ccc2c(c1)CCCC2 (stereo not shown) [SA038] | 94.4 | 69.77 |  | 
35 | Cc1cc(C)c(C)c(S(=O)(=O)CC2CCC(S(C)(=O)=O)CC2)c1C (stereo not shown) [SA086] | 40.75 | 33.07 |  | 
36 | Cc1cc(C)c(S(=O)(=O)CC2CC(C)(C)SC(C)(C)C2)cc1C [SA023] | 87.74 | 63.47 |  | 
37 | CCc1ccc(S(=O)(=O)C2CCC(CS(=O)(=O)c3cc(C)cc(C)c3)CC2)cc1 (stereo not shown) [SA021] | 70.64 | 44.6 |  | 
38 | CC(C)(C)Cc1ccccc1S(=O)(=O)CC1CCC(C2CC2)CC1 (stereo not shown) [SA089] | 50.1 | 56.61 |  | 
39 | Cc1ccccc1S(=O)(=O)CC1CCC(C2CC2)CC1 (stereo not shown) [SA034] | 87.42 | 77.96 |  | 
40 | CCC(C)(C)c1ccc(S(=O)(=O)CCC2CCCCC2)cc1 [PVZF2042] | 35.98 | 34.02 |  | 
41 | COc1ccc(S(=O)(=O)C2CCC(CS(=O)(=O)c3c(C)c(C)c(C)c(C)c3C)CC2)cc1 (stereo not shown) [SA020] | 36.19 | 27.71 |  | 
42 | CCCCCCS(=O)(=O)c1c(C(C)C)cc(C(C)C)cc1C(C)C [PVZF2003] | 75.26 | 41.74 |  | 
43 | CC(C)(C)c1ccc(S(=O)(=O)CC2CCCC2)cc1 [PVZF2019] | 36.82 | 31.45 |  | 
44 | CC(=O)C1C=C(c2ccccc2)CC1c1ccc2ccccc2c1 (stereo not shown) [PZ179] | 95.65 | 66.51 |  | 
